Publication PMC8998350, “The Evidence for Effective Inhibition of INa Produced by Mirogabalin ((1R,5S,6S)-6-(aminomethyl)-3-ethyl-bicyclo [3.2.0] hept-3-ene-6-acetic acid), a Known Blocker of CaV Channels” (International Journal of Molecular Sciences, 2022)

Tested on: T1, voltage-gated Na+ (NaV) channel
T1 construct: native channels of pituitary GH3 cells, isoform not resolved
Assay: whole-cell patch clamp of native late INa in GH3 cells
Format: cell-based

## CCC1=C[C@@H]2[C@H](C1)C[C@]2(CN)CC(=O)O [MGB, (1R,5S,6S)-6-(aminomethyl)-3-ethyl-bicyclo [3.2.0] hept-3-ene-6-acetic acid]
  IC50: 7.3 µM
